Laboratory results: ChEMBL document CHEMBL1201862, “PubChem BioAssay data set” (2004)
The source made the active and inactive calls.

Experiments:
[1] = biological target: 26S proteasome non-ATPase regulatory subunit 14 (Homo sapiens, UniProt O00487); assay: inhibition of proteasome subunit RPN11 – biochemical, fluorescence polarization, uHTS hits, confirmation (AID 602368); assay type: functional
[2] = biological target: Prothrombin (Bos taurus, UniProt P00735); assay: thrombin inhibition, dose response, biochemical, fluorescence polarization, uHTS hits (AID 602369); assay type: functional
[3] = biological target: T1, SUMO-activating enzyme (Homo sapiens, UniProt Q9UBT2); assay: SUMOylation inhibitor hit validation, confirmation, SUMOylation inhibitor project, biochemical, AlphaScreen (AID 2018); assay type: functional
T1 sequence (Q9UBE0 whole entry): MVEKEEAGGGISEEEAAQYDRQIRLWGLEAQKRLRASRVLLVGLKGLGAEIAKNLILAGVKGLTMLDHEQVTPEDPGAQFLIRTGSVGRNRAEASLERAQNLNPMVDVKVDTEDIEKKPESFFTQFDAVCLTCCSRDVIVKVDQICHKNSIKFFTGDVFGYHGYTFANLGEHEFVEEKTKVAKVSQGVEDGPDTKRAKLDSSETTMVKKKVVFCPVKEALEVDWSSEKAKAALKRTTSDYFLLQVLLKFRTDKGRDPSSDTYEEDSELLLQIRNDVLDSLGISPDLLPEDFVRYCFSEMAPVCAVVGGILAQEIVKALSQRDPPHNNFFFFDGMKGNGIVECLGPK
T1 sequence (Q9UBT2 whole entry): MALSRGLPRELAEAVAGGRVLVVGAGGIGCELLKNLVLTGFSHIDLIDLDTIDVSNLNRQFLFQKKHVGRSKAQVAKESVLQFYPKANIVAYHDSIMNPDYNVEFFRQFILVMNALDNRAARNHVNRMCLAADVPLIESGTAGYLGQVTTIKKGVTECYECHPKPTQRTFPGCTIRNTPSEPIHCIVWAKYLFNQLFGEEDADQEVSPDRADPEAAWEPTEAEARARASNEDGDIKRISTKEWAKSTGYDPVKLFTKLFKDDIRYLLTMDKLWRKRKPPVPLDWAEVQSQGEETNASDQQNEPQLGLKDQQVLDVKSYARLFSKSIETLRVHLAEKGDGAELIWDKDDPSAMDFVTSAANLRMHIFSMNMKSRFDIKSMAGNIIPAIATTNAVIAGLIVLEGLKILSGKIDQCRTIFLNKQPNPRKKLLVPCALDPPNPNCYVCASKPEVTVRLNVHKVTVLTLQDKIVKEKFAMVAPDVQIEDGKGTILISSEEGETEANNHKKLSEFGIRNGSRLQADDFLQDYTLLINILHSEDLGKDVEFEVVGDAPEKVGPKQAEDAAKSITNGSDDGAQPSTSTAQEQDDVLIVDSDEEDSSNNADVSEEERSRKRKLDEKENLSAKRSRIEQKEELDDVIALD

[4] = biological target: T2, Small ubiquitin-related modifier 1 (Homo sapiens, UniProt P63165); assay: inhibitors of SUMO1 partner interactions, dose response, biochemical, FRET (AID 624383); assay type: functional; settings: read-out: IC50_Mean
T2 sequence (P63165 whole entry): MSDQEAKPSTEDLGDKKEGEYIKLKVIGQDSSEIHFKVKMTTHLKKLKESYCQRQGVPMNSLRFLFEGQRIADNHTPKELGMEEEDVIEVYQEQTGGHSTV

[5] = biological target: DNA (cytosine-5)-methyltransferase 1 (Homo sapiens, UniProt P26358); assay: DNMT1 methyltransferase inhibitors, confirmation, biochemical, fluorescent molecular beacon (AID 602386); assay type: functional
Sequence of DNA (cytosine-5)-methyltransferase 1 (P26358 whole entry): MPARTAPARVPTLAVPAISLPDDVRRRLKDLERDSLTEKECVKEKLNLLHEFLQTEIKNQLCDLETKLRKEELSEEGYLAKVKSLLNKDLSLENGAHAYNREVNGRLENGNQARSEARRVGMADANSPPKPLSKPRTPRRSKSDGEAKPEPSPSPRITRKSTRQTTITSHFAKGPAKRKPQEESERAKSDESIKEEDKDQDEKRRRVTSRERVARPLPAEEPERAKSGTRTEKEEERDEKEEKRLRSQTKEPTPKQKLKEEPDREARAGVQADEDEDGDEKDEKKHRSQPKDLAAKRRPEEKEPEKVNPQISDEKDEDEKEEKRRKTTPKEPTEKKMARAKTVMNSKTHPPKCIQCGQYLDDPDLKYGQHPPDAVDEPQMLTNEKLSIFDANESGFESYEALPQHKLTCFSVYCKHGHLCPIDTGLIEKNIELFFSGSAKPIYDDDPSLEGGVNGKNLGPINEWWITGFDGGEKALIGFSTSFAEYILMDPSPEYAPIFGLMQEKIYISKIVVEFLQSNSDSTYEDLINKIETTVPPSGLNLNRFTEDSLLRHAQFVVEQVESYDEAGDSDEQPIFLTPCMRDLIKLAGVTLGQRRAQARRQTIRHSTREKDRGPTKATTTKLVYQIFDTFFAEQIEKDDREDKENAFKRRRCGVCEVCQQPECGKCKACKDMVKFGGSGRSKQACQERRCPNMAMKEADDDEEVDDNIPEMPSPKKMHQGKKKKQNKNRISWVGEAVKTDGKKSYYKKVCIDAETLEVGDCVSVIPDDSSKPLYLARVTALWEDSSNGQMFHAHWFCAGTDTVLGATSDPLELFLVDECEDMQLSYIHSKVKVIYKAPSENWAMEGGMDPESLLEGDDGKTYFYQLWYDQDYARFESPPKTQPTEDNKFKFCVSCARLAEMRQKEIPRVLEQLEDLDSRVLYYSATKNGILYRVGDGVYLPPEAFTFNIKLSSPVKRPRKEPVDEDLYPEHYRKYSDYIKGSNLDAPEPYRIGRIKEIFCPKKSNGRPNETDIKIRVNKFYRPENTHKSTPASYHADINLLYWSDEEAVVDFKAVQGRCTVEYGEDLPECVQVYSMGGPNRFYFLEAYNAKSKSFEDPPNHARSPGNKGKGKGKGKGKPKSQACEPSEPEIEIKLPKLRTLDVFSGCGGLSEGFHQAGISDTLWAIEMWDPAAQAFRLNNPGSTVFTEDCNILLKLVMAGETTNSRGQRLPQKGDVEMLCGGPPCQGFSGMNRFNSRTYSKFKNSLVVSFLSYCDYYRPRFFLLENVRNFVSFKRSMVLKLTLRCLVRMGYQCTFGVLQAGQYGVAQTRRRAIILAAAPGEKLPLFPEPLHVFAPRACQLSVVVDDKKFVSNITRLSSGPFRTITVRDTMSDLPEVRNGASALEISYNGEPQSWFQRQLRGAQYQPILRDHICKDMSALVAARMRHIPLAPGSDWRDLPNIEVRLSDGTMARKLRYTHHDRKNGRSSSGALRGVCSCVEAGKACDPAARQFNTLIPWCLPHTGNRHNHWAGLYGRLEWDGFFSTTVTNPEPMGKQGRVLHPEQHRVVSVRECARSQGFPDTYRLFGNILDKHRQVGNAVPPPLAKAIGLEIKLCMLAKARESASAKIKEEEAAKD

[6] = biological target: 72 kDa type IV collagenase (Homo sapiens, UniProt P08253); assay: Dose Response validation of uHTS RPN11 inhibitor hits using a MMP-2 Fluorescence assay.; assay type: functional
Sequence of 72 kDa type IV collagenase (P08253 whole entry, the tested form may be a part): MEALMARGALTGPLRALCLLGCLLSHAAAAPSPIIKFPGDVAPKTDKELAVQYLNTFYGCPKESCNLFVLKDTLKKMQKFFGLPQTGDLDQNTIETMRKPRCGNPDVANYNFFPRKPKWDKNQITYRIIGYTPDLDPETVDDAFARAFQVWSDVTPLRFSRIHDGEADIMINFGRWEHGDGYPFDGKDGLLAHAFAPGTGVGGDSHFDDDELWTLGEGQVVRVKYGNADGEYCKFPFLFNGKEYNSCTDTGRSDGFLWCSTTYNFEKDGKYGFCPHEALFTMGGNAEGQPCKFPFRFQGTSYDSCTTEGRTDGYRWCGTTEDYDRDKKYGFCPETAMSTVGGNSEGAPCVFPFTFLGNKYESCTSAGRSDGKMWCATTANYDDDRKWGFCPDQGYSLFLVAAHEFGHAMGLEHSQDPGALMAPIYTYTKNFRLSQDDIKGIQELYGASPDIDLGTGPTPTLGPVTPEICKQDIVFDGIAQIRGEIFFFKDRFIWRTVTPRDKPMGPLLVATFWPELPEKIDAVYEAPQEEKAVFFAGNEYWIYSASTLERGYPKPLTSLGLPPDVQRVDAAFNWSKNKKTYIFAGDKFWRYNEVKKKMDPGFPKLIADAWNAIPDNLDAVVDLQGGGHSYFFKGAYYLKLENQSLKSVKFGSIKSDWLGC

[7] = biological target: T3, Carboxy-terminal domain RNA polymerase II polypeptide A small phosphatase 1 (Homo sapiens, UniProt Q9GZU7); assay: inhibitors of CTDSP1, concentration-response testing, biochemical assay, absorbance-based, actives from ultra-high-throughput screening (AID 540297); assay type: functional
T3 sequence (Q9GZU7 whole entry): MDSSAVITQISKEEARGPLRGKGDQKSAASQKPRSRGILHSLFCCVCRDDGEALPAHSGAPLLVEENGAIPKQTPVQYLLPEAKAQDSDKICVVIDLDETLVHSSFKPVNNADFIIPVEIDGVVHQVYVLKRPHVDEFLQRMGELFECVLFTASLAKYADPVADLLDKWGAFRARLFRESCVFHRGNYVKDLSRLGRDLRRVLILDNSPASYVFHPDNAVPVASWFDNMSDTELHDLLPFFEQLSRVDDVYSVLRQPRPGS

[8] = biological target: Genome polyprotein (Hepatitis C virus, UniProt Q2Q167); assay: HCV core protein dimerization inhibitors, dose response, biochemical, TR-FRET (AID 2159); parameters: species or system Hepacivirus hominis;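 note: blocks dimerization of HCV core protein measured by TR-FRET between tagged core106 pairs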
[9] = biological target: T1, SUMO-activating enzyme; assay: inhibitors of in vitro SUMOylation cascade, primary screen, biochemical, HTRF, uHTS (AID 2006); assay type: protein-complex assay
[10] = biological target: T2, Small ubiquitin-related modifier 1; assay: inhibitors of SUMO1 peptide binding, dose response, biochemical, fluorescence polarization, uHTS hits (AID 624382); assay type: functional; settings: read-out: IC50_Mean
[11] = biological target: T4, Tyrosine-protein phosphatase non-receptor type 22 (Homo sapiens, UniProt Q9Y2R2); assay type: functional
T4 sequence (Q9Y2R2 whole entry): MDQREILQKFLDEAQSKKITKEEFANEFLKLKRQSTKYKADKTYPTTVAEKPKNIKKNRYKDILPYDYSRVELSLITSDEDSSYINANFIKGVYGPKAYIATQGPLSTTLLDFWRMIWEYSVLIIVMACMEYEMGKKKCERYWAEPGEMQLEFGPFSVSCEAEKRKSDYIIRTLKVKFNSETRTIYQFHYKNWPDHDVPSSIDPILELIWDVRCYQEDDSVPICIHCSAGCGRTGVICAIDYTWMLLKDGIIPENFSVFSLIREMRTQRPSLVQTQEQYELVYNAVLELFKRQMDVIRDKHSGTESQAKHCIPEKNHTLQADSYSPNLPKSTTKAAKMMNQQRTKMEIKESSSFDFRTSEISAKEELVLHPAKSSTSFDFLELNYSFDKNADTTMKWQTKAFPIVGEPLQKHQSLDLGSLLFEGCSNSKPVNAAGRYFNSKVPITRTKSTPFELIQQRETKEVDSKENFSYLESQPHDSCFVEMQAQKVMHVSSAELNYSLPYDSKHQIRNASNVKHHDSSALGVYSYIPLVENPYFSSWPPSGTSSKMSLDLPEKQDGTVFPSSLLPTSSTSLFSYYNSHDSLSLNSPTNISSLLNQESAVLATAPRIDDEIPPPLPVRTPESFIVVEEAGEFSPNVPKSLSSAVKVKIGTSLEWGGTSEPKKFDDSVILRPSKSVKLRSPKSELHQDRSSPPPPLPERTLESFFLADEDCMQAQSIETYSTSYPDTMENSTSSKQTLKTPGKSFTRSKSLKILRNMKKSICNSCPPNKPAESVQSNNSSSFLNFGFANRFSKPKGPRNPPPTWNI

[12] = biological target: T4, Tyrosine-protein phosphatase non-receptor type 22; assay type: functional; remark: listed apart in the source
[13] = biological target: T5, Tyrosine-protein phosphatase non-receptor type 7 (Homo sapiens, UniProt P35236); assay type: functional
T5 sequence (P35236 whole entry): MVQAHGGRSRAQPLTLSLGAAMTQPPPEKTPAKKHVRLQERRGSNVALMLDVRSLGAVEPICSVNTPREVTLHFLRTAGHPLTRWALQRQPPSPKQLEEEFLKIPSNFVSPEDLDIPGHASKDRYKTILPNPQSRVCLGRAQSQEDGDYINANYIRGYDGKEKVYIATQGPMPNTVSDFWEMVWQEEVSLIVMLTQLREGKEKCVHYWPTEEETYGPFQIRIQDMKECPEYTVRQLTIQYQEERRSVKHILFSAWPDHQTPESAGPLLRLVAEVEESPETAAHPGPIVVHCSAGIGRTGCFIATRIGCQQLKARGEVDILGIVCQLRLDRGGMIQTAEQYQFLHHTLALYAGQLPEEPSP

[14] = cytotoxicity toward NIH3T3 fibroblasts, dose response, counter-screen, cell-based, ATP luminescence, mouse fibroblasts (AID 2010); assay type: functional;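 note: cells exposed to compound for about 90 hours before reading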
[15] = inhibitors of intracellular T. cruzi replication, confirmation, NIH3T3 host cells, beta-gal luminescence (AID 2044); assay type: functional, cell-based;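 note: intracellular parasites grown in NIH/3T3 mouse fibroblasts as host cells; luminescent beta-galactosidase reporter signal from transgenic T. cruzi replicating inside host cells; inhibitors lower the luminescence signal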
[16] = cytotoxicity toward DRD oncogenic fibroblasts, dose response, cell-based, non-viral oncogenic, luminescence (AID 1934); assay type: functional; settings: Homo sapiens
[17] = biological target: T6, G-protein coupled receptor 55 (Homo sapiens, UniProt Q9Y2T6); assay: SAR analysis of selective Agonists of GPR55 using an Image-Based Assay. [Related pubchem assays (depositor defined):AID1961, AID1965]; assay type: functional
T6 sequence (Q9Y2T6 whole entry): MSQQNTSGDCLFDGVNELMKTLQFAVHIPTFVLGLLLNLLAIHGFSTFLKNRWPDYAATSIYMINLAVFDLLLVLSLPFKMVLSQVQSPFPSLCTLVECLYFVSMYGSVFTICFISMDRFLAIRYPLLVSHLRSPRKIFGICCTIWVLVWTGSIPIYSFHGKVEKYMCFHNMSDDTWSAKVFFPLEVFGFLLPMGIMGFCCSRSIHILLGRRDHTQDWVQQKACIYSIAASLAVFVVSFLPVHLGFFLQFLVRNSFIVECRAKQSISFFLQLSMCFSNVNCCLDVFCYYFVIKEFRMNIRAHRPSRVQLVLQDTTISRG

[18] = biological target: T7, Cannabinoid receptor 2 (Homo sapiens, UniProt P34972); assay: SAR analysis of agonists of the Cannabinoid Receptor 2 using an Image-Based Assay - Set 2. [Related pubchem assays (depositor defined):AID1961, AID1965]; assay type: functional
T7 sequence (P34972 whole entry): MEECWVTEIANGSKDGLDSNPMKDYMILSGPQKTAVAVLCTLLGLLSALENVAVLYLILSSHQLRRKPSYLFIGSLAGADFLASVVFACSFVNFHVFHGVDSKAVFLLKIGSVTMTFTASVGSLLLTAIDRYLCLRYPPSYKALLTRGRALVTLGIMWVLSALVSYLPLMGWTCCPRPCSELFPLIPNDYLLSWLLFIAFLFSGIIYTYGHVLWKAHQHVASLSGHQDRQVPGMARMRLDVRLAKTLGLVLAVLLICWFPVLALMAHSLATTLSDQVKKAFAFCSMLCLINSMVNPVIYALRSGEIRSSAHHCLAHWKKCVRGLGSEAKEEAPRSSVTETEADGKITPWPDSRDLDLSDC

[19] = tested on: BJ; assay: cytotoxicity toward BJ-TERT fibroblasts, dose response, cell-based, RAS-independent, luminescence (AID 1933); assay type: functional; settings: Homo sapiens
[20] = biological target: Cannabinoid receptor 1 (Homo sapiens, UniProt P21554); assay: SAR analysis of antagonists of the Cannabinoid Receptor 1 using an Image-Based Assay. [Related pubchem assays (depositor defined):AID1961, AID1965]; assay type: functional
[21] = biological target: T7, Cannabinoid receptor 2; assay: SAR analysis of antagonists of the Cannabinoid Receptor 2 using an Image-Based Assay - Set 2. [Related pubchem assays (depositor defined):AID1961, AID1965]; assay type: functional
[22] = biological target: T6, G-protein coupled receptor 55; assay: GPR55 agonists via beta-arrestin recruitment, primary screen, imaging, U2OS cells, beta-arrestin-GFP redistribution (AID 1961); assay type: functional
[23] = Luminescence Cell-Based Dose Retest to Confirm Inhibitors of Cancer Stem Cells. [Related pubchem assays (depositor defined):AID2717, AID2721]; assay type: functional; settings: Homo sapiens
[24] = tested on: BJ; assay: cytotoxicity toward BJ-TERT-LT-ST fibroblasts, dose response, cell-based, RAS-independent, luminescence (AID 1935); assay type: functional; settings: Homo sapiens;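 note: BJ fibroblasts immortalized with TERT plus LT and ST oncogenes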
[25] = tested on: BJ; assay: cells; assay type: functional, cell-based; settings: Homo sapiens
[26] = biological target: Intestinal-type alkaline phosphatase (Mus musculus, UniProt P24822); assay: mouse intestinal alkaline phosphatase activators, dose response, biochemical, luminescence, uHTS hits (AID 488783); assay type: functional
[27] = biological target: T8, Alkaline phosphatase, tissue-nonspecific isozyme (Homo sapiens, UniProt P05186); assay: TNAP enzyme activators, dose response, selectivity assay for mouse IAP activator project, biochemical, TNAP isozyme, mouse IAP uHTS hits (AID 488880); assay type: functional
T8 sequence (P05186 whole entry): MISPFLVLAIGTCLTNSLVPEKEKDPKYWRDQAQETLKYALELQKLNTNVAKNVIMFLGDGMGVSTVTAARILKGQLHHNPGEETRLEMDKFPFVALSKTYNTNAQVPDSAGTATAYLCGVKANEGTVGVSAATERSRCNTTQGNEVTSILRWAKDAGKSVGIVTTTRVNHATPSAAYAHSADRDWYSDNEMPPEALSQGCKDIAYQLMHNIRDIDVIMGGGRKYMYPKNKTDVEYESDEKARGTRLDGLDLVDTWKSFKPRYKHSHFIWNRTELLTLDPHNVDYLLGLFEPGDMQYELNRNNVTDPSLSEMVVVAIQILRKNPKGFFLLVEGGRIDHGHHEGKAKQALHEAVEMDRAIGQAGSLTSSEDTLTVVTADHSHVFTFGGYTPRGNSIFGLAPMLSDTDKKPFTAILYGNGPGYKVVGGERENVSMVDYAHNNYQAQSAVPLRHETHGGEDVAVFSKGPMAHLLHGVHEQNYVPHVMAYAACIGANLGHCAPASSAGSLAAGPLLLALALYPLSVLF

[28] = biological target: Intestinal-type alkaline phosphatase (Homo sapiens, UniProt P09923); assay: activation of human intestinal alkaline phosphatase – biochemical, dose response (AID 488873); assay type: functional
Sequence of Intestinal-type alkaline phosphatase (Homo sapiens, UniProt P09923) (P09923 whole entry): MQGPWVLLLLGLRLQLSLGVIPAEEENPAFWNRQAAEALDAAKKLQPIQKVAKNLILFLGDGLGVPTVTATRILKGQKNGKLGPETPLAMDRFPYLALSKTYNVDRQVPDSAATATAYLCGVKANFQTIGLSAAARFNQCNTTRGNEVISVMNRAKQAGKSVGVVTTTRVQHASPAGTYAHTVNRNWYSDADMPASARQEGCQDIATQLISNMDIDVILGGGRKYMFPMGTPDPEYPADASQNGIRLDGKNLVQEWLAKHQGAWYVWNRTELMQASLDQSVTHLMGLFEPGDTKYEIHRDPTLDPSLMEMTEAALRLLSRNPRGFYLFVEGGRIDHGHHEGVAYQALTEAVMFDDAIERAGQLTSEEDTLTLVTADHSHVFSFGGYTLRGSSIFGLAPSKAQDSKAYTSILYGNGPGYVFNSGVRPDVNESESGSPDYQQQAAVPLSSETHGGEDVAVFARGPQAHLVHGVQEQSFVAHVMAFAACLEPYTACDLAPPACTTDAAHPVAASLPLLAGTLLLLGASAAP
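Throughout, for AC50: cells exposed to compound for roughly 70 hours or longer before luminescence read.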

Sequence of 26S proteasome non-ATPase regulatory subunit 14 (O00487 whole entry): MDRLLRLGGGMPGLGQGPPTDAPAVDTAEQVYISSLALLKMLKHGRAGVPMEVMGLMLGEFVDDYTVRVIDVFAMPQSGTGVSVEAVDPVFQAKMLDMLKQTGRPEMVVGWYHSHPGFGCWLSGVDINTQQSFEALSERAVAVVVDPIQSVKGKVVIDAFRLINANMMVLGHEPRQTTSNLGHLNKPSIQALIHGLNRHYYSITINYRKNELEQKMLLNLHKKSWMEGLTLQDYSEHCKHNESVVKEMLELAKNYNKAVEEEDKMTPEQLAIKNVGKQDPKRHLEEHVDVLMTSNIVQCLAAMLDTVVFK

COC(=O)c1c(NC(=O)COC(=O)c2ccc(NC(=O)CC#N)cc2)sc2c1CCCCC2
inactive: IC50 [6] > 100 µM | IC50 [10] > 66.6 µM
> 49.8 µM (not active): IC50 [8]
active: IC50 [1] 13.8 µM | IC50 [2] 85.9 µM | IC50 [3] 6.14 µM | IC50 [4] 6.24 µM | IC50 [5] 3.35 µM | IC50 [7] 1.84 µM | IC50 [9] 7.43 µM

CCC(C)NCCOCCOc1ccc(Cl)c(C)c1C (stereo not drawn)
inactive: IC50 [11] > 79.4 µM | IC50 [12] > 79.4 µM | IC50 [13] > 79.4 µM
active: EC50 [14] 9.69 µM | EC50 [15] 0.148 µM

Cc1occc1C(=O)Nc1ccc(OCc2ccccc2)cc1
active: EC50 [16] 9.29 µM | EC50 [17] 0.544 µM | EC50 [19] 11.4 µM | EC50 [22] 0.866 µM | AC50 [23] 5.34 µM | EC50 [25] 9.33 µM
inconclusive: EC50 [24] > 150 µM
inactive: EC50 [18] > 32 µM | IC50 [20] > 32 µM | IC50 [21] > 32 µM

COc1ccc(NC(=O)CCNS(=O)(=O)c2ccc3[nH]c(=O)oc3c2)cc1Cl
active: EC50 [26] 20.5 µM | EC50 [27] 39.6 µM | EC50 [28] 42.8 µM
